Laboratory results taken from the CheMixHub viscosity set.

Assay: xn = mol fraction of the nth substance listed

O=S(=O)([O-])[O-].O=S(=O)([O-])[O-].O=S(=O)([O-])[O-].[Fe+3].[Fe+3] + O
323.15 K, 101.3 kPa
Conditions	viscosity [mPa·s]
x1 = 0.0012	0.617
x1 = 0.0024	0.645
x1 = 0.00498	0.768
x1 = 0.00789	0.982
x1 = 0.0111	1.275

CCCBr + C1CCCCC1
308.15 K, 101 kPa
Conditions	viscosity [mPa·s]
x2 = 0.0957	0.4455
x2 = 0.1997	0.46
x2 = 0.2991	0.4715
x2 = 0.4983	0.516
x2 = 0.6052	0.5432
x2 = 0.7135	0.5889
x2 = 0.801	0.6197
x2 = 0.9011	0.6872

COCCOCCOCCOC + CCCO
viscosity [mPa·s]
Conditions	298.15 K	308.15 K
101 kPa, x1 = 0.0386	1.777	1.406
101 kPa, x1 = 0.0615	1.714	1.363
101 kPa, x1 = 0.076	1.697	1.34
101 kPa, x1 = 0.1064	1.636	1.318
101 kPa, x1 = 0.1595	1.584	1.28
101 kPa, x1 = 0.2157	1.577	1.288
101 kPa, x1 = 0.2499	1.572	1.274
101 kPa, x1 = 0.2631	1.57	1.275
101 kPa, x1 = 0.3355	1.594	1.288
101 kPa, x1 = 0.422	1.607	1.315
101 kPa, x1 = 0.4701	1.635	1.335
101 kPa, x1 = 0.5148	1.654	1.363
101 kPa, x1 = 0.5848	1.693	1.385
101 kPa, x1 = 0.6662	1.743	1.442
101 kPa, x1 = 0.7126	1.772	1.456
101 kPa, x1 = 0.7778	1.826	1.483
101 kPa, x1 = 0.8098	1.853	1.508
101 kPa, x1 = 0.8789	1.89	1.536
101 kPa, x1 = 0.9504	1.942	1.58
101 kPa, x1 = 0.9719	1.956	1.592
101.33 kPa, x1 = 0.0081	1.918	–
101.33 kPa, x1 = 0.0165	1.884	–
101.33 kPa, x1 = 0.0245	1.856	–
101.33 kPa, x1 = 0.0336	1.824	–
101.33 kPa, x1 = 0.048	1.781	–
101.33 kPa, x1 = 0.0692	1.725	–
101.33 kPa, x1 = 0.0946	1.67	–
101.33 kPa, x1 = 0.1327	1.614	–
101.33 kPa, x1 = 0.1747	1.573	–
101.33 kPa, x1 = 0.2259	1.549	–
101.33 kPa, x1 = 0.2757	1.544	–
101.33 kPa, x1 = 0.3226	1.548	–
101.33 kPa, x1 = 0.3691	1.563	–
101.33 kPa, x1 = 0.4157	1.578	–
101.33 kPa, x1 = 0.4606	1.598	–
101.33 kPa, x1 = 0.5153	1.625	–
101.33 kPa, x1 = 0.5714	1.653	–
101.33 kPa, x1 = 0.6283	1.684	–
101.33 kPa, x1 = 0.6732	1.713	–
101.33 kPa, x1 = 0.7227	1.743	–
101.33 kPa, x1 = 0.7726	1.778	–
101.33 kPa, x1 = 0.8162	1.812	–
101.33 kPa, x1 = 0.8625	1.848	–
101.33 kPa, x1 = 0.9112	1.888	–
101.33 kPa, x1 = 0.9347	1.904	–
101.33 kPa, x1 = 0.9568	1.919	–
101.33 kPa, x1 = 0.9775	1.935	–
